Measurements published in patent US20190059378A1, “SYNERGISTIC FUNGICIDAL COMPOSITION FOR CONTROLLING PLANT DISEASES” (Sumitomo Chemical Company, Limited, priority 2016, published 2019).

Columns and labels:
[1] = tested on: Septoria leaf blotch (Mycosphaerella graminicola); experiment: Test Example 3: growth of Septoria leaf blotch in YBG medium in microtiter plate (absorbance at 550 nm); format: cell-based; conditions: single use, 18° C., four days
Experimental: Each of the present compound 1-1 or the present compound 2 was dissolved into dimethyl sulfoxide such that each concentration of these compounds was adjusted to one hundred fifty times as much as the concentration indicated in the below-mentioned Table 3. The resultant agent solution was dispensed into each microtiter plate (with 96 wells) in 1 μl portion thereof per well. […] The plate was cultivated at 18° C. for four days, thereby allowing Septoria leaf blotch (Mycosphaerella graminicola) to undergo proliferation, and the absorbance at 550 nm of each well of the microtiter plate was then measured to examine a degree of growth of Septoria leaf blotch (hereinafter referred to as “treated group”).
Whereas, Septoria leaf blotch was proliferated similarly to the case of the treated group except that dimethyl sulfoxide was used instead of the agent solution, and the degree of the growth was examined (hereinafter referred to as “untreated group”). The efficacy was calculated from each of the obtained degree of growth of the treated group and the untreated group respectively by the following “Equation 1”. […]

[2] = tested on: Brown rust (Puccinia recondita); experiment: Test Example 4: foliar spray on wheat, Brown rust lesion area; format: in vivo, Puccinia recondita on wheat (cultivar. Shirogane); conditions: single use, foliar spray one day before inoculation
Experimental: Five(5) parts of the present compound 1-1, 35 parts of a mixture of white carbon and ammonium polyoxyethylene alkyl ether sulfate (the weight ratio of 1:1) and 55 parts of water were mixed, and the mixture was then finely-ground by a wet grinding method to obtain a flowable comprising the present compound 1-1. Separately, the flowable comprising the present compound 2 was prepared according to the above-mentioned similar method except that the present compound 2 was used instead of the present compound 1-1.
Each of the flowable comprising the present compound 1-1 and the flowable comprising the present compound 2 was diluted with water and if necessary, the resultant dilute solutions were mixed each other such that each concentration of the respective compounds in the dilution solution was adjusted to the concentration indicated in Table 4, to prepare the dilution solutions, respectively.
A plastic pot was filled with soil, and thereto wheat (cultivar. Shirogane) was seeded, and the plants were grown in a greenhouse for ten days. The above-mentioned dilution solutions were sprayed to foliar parts so as to adhere adequately onto the surfaces of leaves of the above wheats. After spraying the dilute solution, the plants were air-dried, and one day after the application, an aqueous suspension of uredospores of Brown rust (Puccinia recondita) was inoculated by spraying thereto. After the inoculation, the plants were placed at 27° C. under humid condition for one day, and were then cultivated under lighting for ten days, and a lesion area was examined (hereinafter referred to as “lesion area of treated group”).
Whereas, wheats were cultivated similarly to the treated group except that no foliage application of the above-mentioned agent solution was done, and Brown rust were inoculated, and the lesion area thereof was examined (hereinafter referred to as “lesion area of the untreated group”).
From each of the lesion area of the treated group and the untreated group, respectively, the efficacy of the treated group was calculated by the following Equation 2. […]

Structure (SMILES)	Efficacy (%) ([1]; concentration in medium 0.005 ppm)	Efficacy (%) ([2]; concentration in agent solution 0.0001 ppm)	Efficacy (%) ([2]; concentration in agent solution 0.01 ppm)	Efficacy (%) ([1]; concentration in medium 0.05 ppm)	Efficacy (%) ([2]; concentration in agent solution 0.001 ppm)
Cc1nnc(Cl)c(-c2c(F)cccc2F)c1-c1ccccc1 [Present compound 1-1]	4	20	31	–	–
CC1CC(C)(C)c2c(F)ccc(NC(=O)c3cn(C)nc3C(F)F)c21 (centres unmarked) [Present compound 2]	–	–	–	55	15
